Reference: patent publication US20250381249A1, “COMBINATION TREATMENT FOR RESISTANT HYPERTENSION” (Mayo Foundation for Medical Education and Research, priority 2018, published 2025)

Key:
Assay type in all cases: in vivo, rat
SHR [1] = experiment: Acute study in SHR, renal function (GFR, urinary sodium and water excretion); settings: Fs groups, 60 minutes, inulin clearance
Protocol: Acute Study Protocol in SHR: The cardiorenal and neurohumoral actions of MANP, Fs, or their combination were investigated in the genetic model of hypertension in male SHR (n=6 in each group). Rats were anesthetized in an induction chamber with inhaled Isoflurane 2.5%. During this brief state of anesthesia, the rats were administered IP Inactin 100 mg/kg to maintain anesthesia. An oxygen mask was used until the end of the experiment. The carotid artery was cannulated for arterial pressure measurements and the right jugular vein was cannulated for infusions. Pressures were recorded and analyzed digitally (Sonometrics, London, Ontario, Canada). […]
Neurohormonal and Electrolyte Analysis: Plasma ANP was measured by radioimmunoassay (Phoenix Pharmaceuticals) as an assessment of MANP, as the ANP RIA fully detects MANP (Burnett et al. (1986) Science 231(4742):1145-1147). Plasma and urinary cGMP (Enzo Life Sciences) and aldosterone (DRG International, Springfield, NJ) were determined by ELISA. Inulin concentrations were measured using the anthrone method, as described elsewhere (Fuhr et al. (1955) Klin. Wochenschr 33:729-730). GFR was calculated by inulin clearance. Electrolytes were measured by flame photometry (IL943, Instrumentation Laboratory, UK). […]
(§1) Statistical Analysis: Values are expressed as mean±standard error of mean (SEM). […]

SHR [2] = experiment: Acute study in SHR, neurohumoral analysis (plasma and urinary cGMP, aldosterone); settings: Fs5 and Fs10, 60 minutes
Protocol: Rats were anesthetized in an induction chamber with inhaled Isoflurane 2.5%. During this brief state of anesthesia, the rats were administered IP Inactin 100 mg/kg to maintain anesthesia. An oxygen mask was used until the end of the experiment. The carotid artery was cannulated for arterial pressure measurements and the right jugular vein was cannulated for infusions. Pressures were recorded and analyzed digitally (Sonometrics, London, Ontario, Canada). Via a small incision in the lower abdominal wall, the bladder was cannulated for urine sampling. Immediately after preparation, a 30-minute equilibration period was started with intravenous inulin infusion. […] Plasma and urinary cGMP (Enzo Life Sciences) and aldosterone (DRG International, Springfield, NJ) were determined by ELISA. Inulin concentrations were measured using the anthrone method, as described elsewhere (Fuhr et al. (1955) Klin. Wochenschr 33:729-730). GFR was calculated by inulin clearance. Electrolytes were measured by flame photometry (IL943, Instrumentation Laboratory, UK). All measurements were performed according to manufacturer instructions.

SHR [3] = experiment: Acute study in SHR, systemic hemodynamics (arterial BP); settings: all three doses of Fs (1, 5, 10 mg/kg IV bolus)
Protocol: Acute Study Protocol in SHR: The cardiorenal and neurohumoral actions of MANP, Fs, or their combination were investigated in the genetic model of hypertension in male SHR (n=6 in each group). Rats were anesthetized in an induction chamber with inhaled Isoflurane 2.5%. During this brief state of anesthesia, the rats were administered IP Inactin 100 mg/kg to maintain anesthesia. An oxygen mask was used until the end of the experiment. The carotid artery was cannulated for arterial pressure measurements and the right jugular vein was cannulated for infusions. Pressures were recorded and analyzed digitally (Sonometrics, London, Ontario, Canada). Via a small incision in the lower abdominal wall, the bladder was cannulated for urine sampling.
Immediately after preparation, a 30-minute equilibration period was started with intravenous inulin infusion. […] After baseline measurements, rats were randomly assigned to ten groups: • Group 1—treated with MANP100; • Group 2—treated with MANP300; • Group 3—treated with MANP600; • Group 4—treated with Fs1; • Group 5—treated with Fs5; • Group 6—treated with Fs10; • Group 7—treated with MANP300+Fs5; • Group 8—treated with MANP300+Fs10; • Group 9—treated with MANP600+Fs10; and • Group 10—treated with inulin, normal saline, or inulin and normal saline. […]
as §1

[4] = system: spontaneously hypertensive rats (SHR); experiment: Individual and combined effects of MANP and Fs on BP and aldosterone in spontaneously hypertensive rats (Example 1); settings: for Mean arterial pressure (MAP) Δ: 60 minute period, mean±SD

## NS(=O)(=O)c1cc(C(=O)O)c(NCc2ccco2)cc1Cl [Fs, furosemide]
SHR [1]
  GFR compared to the no treatment control groups: significantly lower
SHR [2]
  levels of aldosterone compared to the control, MANP100 and MANP300 groups: significantly higher
SHR [3]
  BP compared with controls: significantly reduced
[4]; Fs1: 1 mg/kg Fs single bolus
  Mean arterial pressure (MAP) Δ: −40±9 mmHg
[4]; Fs5: 5 mg/kg Fs single bolus
  Mean arterial pressure (MAP) Δ: −55±8 mmHg
[4]; Fs10: 10 mg/kg Fs single bolus
  Mean arterial pressure (MAP) Δ: −63±11 mmHg
[4]; Fs, MANP and Fs+MANP groups, p<0.05
  urinary flow: enhanced
